Test results as given in PubChem BioAssay (NCI).
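Five compound concentrations were applied to cells in 96-well plates for 48 hours; endpoints were derived by simple linear interpolation of the resulting dose-response curve. Here, GI50 denotes the concentration required for 50% inhibition of growth. At the TGI there is no net growth.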

How the values were obtained:
Test in all cases: inhibition of tumour cell growth, NCI panel, 48 h
[1] = tested on: UACC-257 melanoma
[2] = tested on: KM12 colon
[3] = tested on: NCI/ADR-RES ovarian
[4] = tested on: DU-145 prostate
[5] = tested on: OVCAR-8 ovarian
[6] = tested on: ACHN renal
[7] = tested on: MALME-3M melanoma
[8] = tested on: A549 NSCLC
[9] = tested on: TK-10 renal
[10] = tested on: HT29 colon

SMILES	GI50 [1] [µM]	TGI [1] [µM]	GI50 [2] [µM]	TGI [2] [µM]	GI50 [3] [µM]	TGI [3] [µM]	GI50 [4] [µM]	TGI [4] [µM]	GI50 [5] [µM]	TGI [5] [µM]	GI50 [6] [µM]	TGI [6] [µM]	GI50 [7] [µM]	TGI [7] [µM]	GI50 [8] [µM]	TGI [8] [µM]	GI50 [9] [µM]	TGI [9] [µM]	GI50 [10] [µM]	TGI [10] [µM]
CCCCOC(=O)/C=C\C(=O)NC(N)=O	21	56.7	25	66.9	27	74.3	10.1	> 100	29.7	> 100	15.3	30.3	14.7	34.5	34.3	> 100				
CN1CCN(Cc2ccc(NC(=O)c3cncc(C#Cc4c(N)ncc5c(F)cccc45)c3)cc2C(F)(F)F)CC1	0.854	1.76	0.0133	0.65			0.832	1.52	0.988	2.24	0.708	1.36	0.443	1.23	0.794	1.56	0.951	1.71	0.305	1.08
N#CCCN(C1=NN(C(=O)CC(=O)Nc2ccc(Cl)cc2)C(c2ccccc2)C1)c1ccc(Cl)cc1 (centres undefined)		> 100		> 100						> 100		> 100		> 100		> 100		> 100		> 100
O=c1c2ccccc2nc2n1CCc1c-2[nH]c2cc3c(cc12)OCO3		> 25		> 25		> 25				> 25		> 25			> 25	> 25		> 25		
Cn1cnc([N+](=O)[O-])c1Sc1nc2ccccc2o1		19.8		20.5						10		24.9		16.6		75.4		22.9		12.9
COC(=O)C(=NNc1ccccc1[N+](=O)[O-])C(=O)OC		> 100		> 100						> 100		> 100		> 100		> 100		> 100		> 100
Cn1nc(-c2ccccc2)c2c(/C=C/c3ccc(Cl)cc3)onc2c1=O										84.3		> 100				35.4		> 100		> 100
CC12CC/C(=N/NC(N)=O)C3C1CCCC32		> 100		> 100						> 100		> 100		> 100		> 100		> 100		> 100
CN(C)CCCOc1ccc(/C=C2/CCC/C(=C/c3ccc(OCCCN(C)C)cc3)C2=O)cc1		3.93		2.93						6.5		4.13		3.32		6.28		5.33		
COc1ccc(NC(=S)C#N)cc1		> 100		> 100		> 100		> 100		> 100		> 100				> 100		> 100		> 100
N.N.N.N.N.N#Cc1nn[n-]n1.[Cl-].[Co+3]	> 100	> 100	> 100	> 100					> 100	> 100	> 100	> 100	> 100	> 100	> 100	> 100	> 100	> 100	> 100	> 100
COC(=O)C(=O)C(C#N)c1cccc(Cl)c1 (centres undefined)		> 100		> 100						> 100		> 100		> 100		> 100		> 100		> 100
Cc1cc2nc3c(=O)[nH]c(=O)nc-3n(CC(O)C(O)C(O)CO)c2cc1N (centres undefined)				> 100						> 100		> 100				> 100		> 100		> 100
CC12CCCC(C#N)(C1)OC2=O (centres undefined)		> 100		> 100						> 100		> 100		> 100		> 100		> 100		> 100
O=C(O)CCC(=O)Oc1ccc(O)c2c1CCCC2=O		> 100		> 100						> 100		> 100		> 100		> 100		> 100		> 100
CC(=O)n1nnc2ccc([N+](=O)[O-])cc21		> 100		> 100						> 100		> 100		> 100		> 100		> 100		> 100
